# Laboratory results: patent US20260166122A1, “USE OF MICROPEPTIDE MIAC” (NANJING ANJI BIOTECHNOLOGY CO., LTD, priority 2023, published 2026)
# Read-outs that look alike come from different tables or passages of the source. Marks after values point to notes of the source that are not given here. Ends that are not written are not given here.
# Legend:
# [1] = system: human breast cancer cells MX-1; format: cell-based; settings: 72 h
# [2] = system: human hepatocellular carcinoma Hep3B cells; test: subcutaneously transplanted Hep3B tumor in nude mice; format: in vivo, BALB/c nude mouse; settings: Hep3B subcutaneous transplanted tumor, BALB/c nude mice, 5, 10, 15, 20 mg/kg; dose-dependent
# Procedure: Human hepatocellular carcinoma Hep3B cells were cultured in large quantities and digested with a 0.25% trypsin solution; and the cell suspension after digestion termination was centrifuged at 1000 rpm for 5 minutes, and the cells were resuspended in a serum-free MEM medium and then counted to adjust the cell concentration to 5×10^7 cells/mL. Each BALB/c nude mouse (4-6 weeks old, female, weighing 14-16 g, adaptively housed in an SPF animal breeding room for 1 week) was inoculated with 100 μL of the cell suspension in the left axilla, with an inoculated cell amount of 5×10^6 cells. After inoculation, the tumor growth at the inoculation site of nude mice was closely observed. On the 7th day after inoculation, white nodules appeared at the inoculation site, which could be moved subcutaneously upon touch. As the tumor tissue grew, a hard tumor mass gradually formed at the inoculation site. […] The volume of the transplanted tumor was measured and recorded every two days, and the formula for calculating the tumor volume (TV) was: tumor volume=0.5×a×b^2, where a is the length (mm) of the transplanted tumor and b is the width (mm) of the transplanted tumor.
# [3] = system: human malignant melanoma cells M14; format: cell-based; settings: 72 h
# Procedure: (§1) Human pancreatic cancer, hepatocellular carcinoma, colorectal cancer, ovarian cancer, cervical cancer, bladder cancer, melanoma, glioblastoma, neuroblastoma, glioma, osteosarcoma, myeloma, lymphoma, hematologic malignancies, and cholangiocarcinoma cells were cultured in an incubator at 37° C. with 5% CO2 until the density reached 90%, then digested and collected with trypsin, resuspended in a culture medium, and counted under a microscope; the cell concentration was adjusted to about 1.0×10^5 cells/mL; and the cell suspension was inoculated into a 96-well plate, with 100 μL per well, and incubated overnight in an incubator at 37° C. with 5% CO2. After the cells were completely attached to the wall, 100 μL of micropeptides MIAC with concentrations of 50 μM, 100 μM and 200 μM were added to form an administration group; and a culture medium without any medicament was used as a negative control group. After continuing incubation for 72 h, 100 μL of CCK8 was added to each well of the 96-well plate for dissolving. The absorbance OD was measured at a detection wavelength of 450 nm with a microplate reader, and the proliferation inhibition (PI) was calculated using the formula of PI (%)=1-administration group/negative control group. The experiment was repeated 3 times independently, the results were expressed as Mean±SD, and a statistical T test was performed, where *P<0.05 indicated a significant difference and **P<0.01 indicated an extremely significant difference.
# [4] = system: human osteosarcoma cells U-2OS; format: cell-based; settings: 72 h
# Procedure: as §1
# [5] = system: human acute promyelocytic leukemia cells NB4; format: cell-based; settings: 72 h
# Procedure: as §1
# [6] = system: human pancreatic cancer cells MIP-PaCa-2; format: cell-based; settings: 72 h
# Procedure: as §1
# [7] = system: human malignant melanoma cells A375; format: cell-based; settings: 72 h
# Procedure: as §1
# [8] = system: human mantle cell lymphoma cells JeKo-1; format: cell-based; settings: 72 h
# Procedure: as §1
# [9] = system: human hepatocellular carcinoma cells SMMC-7721; format: cell-based; settings: 72 h
# Procedure: as §1
# [10] = system: human osteosarcoma cells MG-63; format: cell-based; settings: 72 h
# Procedure: as §1
# [11] = system: human diffuse large B-cell lymphoma cells OCI-LY10; format: cell-based; settings: 72 h
# Procedure: as §1
# [12] = system: human monocytic leukemia cells Thp-1; format: cell-based; settings: 72 h
# Procedure: as §1
# [13] = system: human colon cancer cells SW480; format: cell-based; settings: 72 h
# Procedure: as §1
# [14] = system: human diffuse large B-cell lymphoma cells WSU-DLCL2; format: cell-based; settings: 72 h
# Procedure: as §1
# [15] = system: human bladder transitional cell carcinoma cells T24; format: cell-based; settings: 72 h
# Procedure: as §1
# [16] = system: human cerebral astrocytic glioblastoma cells U87-MG; format: cell-based; settings: 72 h
# Procedure: as §1
sequence,measurement,setting,value
"MERAGVPGFSPRRSSVEAKMQSTSCSVRKSSTVTAWPAVVLLLSWGQRRGG [MIAC, micropeptide inhibiting actin cytoskeleton]",OD,"[1]; MX-1, 50 μM",1.020 ± 0.028
same,OD,"[1]; MX-1, 100 μM",0.808 ± 0.102
same,OD,"[1]; MX-1, 200 μM",0.630 ± 0.051
same,"in vivo tumor growth (tumor volume, tumor weight) versus blank control",[2],significantly inhibit the in vivo tumor growth
same,OD,"[3]; M14, 50 μM",1.585 ± 0.030
same,OD,"[3]; M14, 100 μM",1.046 ± 0.060**
same,OD,"[3]; M14, 200 μM",0.639 ± 0.046**
same,OD,[4]; 50 μM,0.887 ± 0.024
same,OD,[4]; 100 μM,0.596 ± 0.061**
same,OD,[4]; 200 μM,0.350 ± 0.013**
same,OD,"[5]; NB4, 50 μM",1.177 ± 0.042**
same,OD,"[5]; NB4, 100 μM",0.826 ± 0.066**
same,OD,"[5]; NB4, 200 μM",0.624 ± 0.052**
same,OD,"[6]; MIP-PaCa-2, 50 μM",0.898 ± 0.035
same,OD,"[6]; MIP-PaCa-2, 100 μM",0.866 ± 0.035**
same,OD,"[6]; MIP-PaCa-2, 200 μM",0.571 ± 0.038**
same,OD,"[7]; A375, 50 μM",1.310 ± 0.069**
same,OD,"[7]; A375, 100 μM",1.194 ± 0.043**
same,OD,"[7]; A375, 200 μM",0.911 ± 0.071**
same,OD,"[8]; JeKo-1, 50 μM",1.174 ± 0.027
same,OD,"[8]; JeKo-1, 100 μM",0.820 ± 0.078**
same,OD,"[8]; JeKo-1, 200 μM",0.496 ± 0.052**
same,OD,"[9]; SMMC-7721, 50 μM",1.292 ± 0.012
same,OD,"[9]; SMMC-7721, 100 μM",1.032 ± 0.011**
same,OD,"[9]; SMMC-7721, 200 μM",0.674 ± 0.033**
same,OD,"[10]; MG-63, 50 μM",1.049 ± 0.011**
same,OD,"[10]; MG-63, 100 μM",0.691 ± 0.033**
same,OD,"[10]; MG-63, 200 μM",0.365 ± 0.009**
same,OD,"[11]; OCI-LY10, 50 μM",0.719 ± 0.028**
same,OD,"[11]; OCI-LY10, 100 μM",0.598 ± 0.033**
same,OD,"[11]; OCI-LY10, 200 μM",0.376 ± 0.019**
same,OD,"[12]; Thp-1, 50 μM",1.265 ± 0.059
same,OD,"[12]; Thp-1, 100 μM",0.841 ± 0.058**
same,OD,"[12]; Thp-1, 200 μM",0.681 ± 0.045**
same,OD,"[13]; SW480, 50 μM",0.640 ± 0.032**
same,OD,"[13]; SW480, 100 μM",0.283 ± 0.007**
same,OD,"[13]; SW480, 200 μM",0.147 ± 0.016**
same,OD,"[14]; WSU-DLCL2, 50 μM",0.908 ± 0.061
same,OD,"[14]; WSU-DLCL2, 100 μM",0.684 ± 0.039**
same,OD,"[14]; WSU-DLCL2, 200 μM",0.264 ± 0.056**
same,OD,"[15]; T24, 50 μM",1.125 ± 0.010
same,OD,"[15]; T24, 100 μM",0.730 ± 0.085**
same,OD,"[15]; T24, 200 μM",0.364 ± 0.043**
same,OD,[16]; 50 μM,0.951 ± 0.019
same,OD,[16]; 100 μM,0.785 ± 0.029**
same,OD,[16]; 200 μM,0.656 ± 0.030**
